Reference: a compilation of properties of binary mixtures (doi:10.1016/j.molliq.2014.07.031)

Assay: xn = mol fraction of the nth substance listed
Settings: 101 kPa

SMILES: CCCCCC[n+]1ccn(C)c1.[I-] + [I-].[Li+]
- electrical conductivity (288.1 K, x1 = 0.32): 0.0025 S/m
- electrical conductivity (288.1 K, x1 = 0.59): 0.0002 S/m
- electrical conductivity (293 K, x1 = 0.32): 0.0046 S/m
- electrical conductivity (293 K, x1 = 0.59): 0.0005 S/m
- viscosity (293 K, x1 = 1): 2633 mPa·s
- electrical conductivity (298.1 K, x1 = 0.32): 0.0086 S/m
- viscosity (298.1 K, x1 = 1): 1742 mPa·s
- electrical conductivity (303 K, x1 = 0.32): 0.011 S/m
- electrical conductivity (303 K, x1 = 0.59): 0.0019 S/m
- viscosity (303 K, x1 = 0.59): 7760 mPa·s
- electrical conductivity (308.1 K, x1 = 0.32): 0.0189 S/m
- viscosity (308.1 K, x1 = 1): 802 mPa·s
- electrical conductivity (313 K, x1 = 0.32): 0.032 S/m
- electrical conductivity (313 K, x1 = 0.59): 0.0054 S/m
- viscosity (313 K, x1 = 0.59): 2420 mPa·s
- viscosity (313 K, x1 = 1): 564 mPa·s
- electrical conductivity (318.1 K, x1 = 0.32): 0.0536 S/m
- electrical conductivity (318.1 K, x1 = 0.59): 0.0086 S/m
- viscosity (318.1 K, x1 = 0.59): 1470 mPa·s
- viscosity (318.1 K, x1 = 1): 405 mPa·s
- electrical conductivity (323 K, x1 = 0.32): 0.0894 S/m
- electrical conductivity (323 K, x1 = 0.59): 0.0133 S/m
- viscosity (323 K, x1 = 0.59): 989 mPa·s
- viscosity (323 K, x1 = 1): 279 mPa·s
- electrical conductivity (328.1 K, x1 = 0.32): 0.145 S/m
- electrical conductivity (328.1 K, x1 = 0.59): 0.0206 S/m
- viscosity (328.1 K, x1 = 0.59): 682 mPa·s
- electrical conductivity (333 K, x1 = 0.59): 0.0301 S/m
- viscosity (333 K, x1 = 0.59): 491 mPa·s
- viscosity (333 K, x1 = 1): 164 mPa·s
- electrical conductivity (338.1 K, x1 = 0.59): 0.0428 S/m
- viscosity (338.1 K, x1 = 0.59): 359 mPa·s
- viscosity (338.1 K, x1 = 1): 123.6 mPa·s
- electrical conductivity (343 K, x1 = 0.32): 0.504 S/m
- viscosity (343 K, x1 = 0.32): 380 mPa·s
- electrical conductivity (343 K, x1 = 0.59): 0.0601 S/m
- viscosity (343 K, x1 = 0.59): 272 mPa·s
- viscosity (343 K, x1 = 1): 100.4 mPa·s
- electrical conductivity (348.1 K, x1 = 0.59): 0.082 S/m
- viscosity (348.1 K, x1 = 0.59): 219 mPa·s
- viscosity (348.1 K, x1 = 1): 79.9 mPa·s
- electrical conductivity (353 K, x1 = 0.32): 0.842 S/m
- viscosity (353 K, x1 = 0.32): 225 mPa·s
- electrical conductivity (353 K, x1 = 0.59): 0.109 S/m
- viscosity (353 K, x1 = 0.59): 179 mPa·s
- viscosity (353 K, x1 = 1): 64.6 mPa·s
- electrical conductivity (358.1 K, x1 = 0.32): 1.04 S/m
- viscosity (358.1 K, x1 = 0.32): 177 mPa·s
- electrical conductivity (358.1 K, x1 = 0.59): 0.142 S/m
- viscosity (358.1 K, x1 = 0.59): 144.7 mPa·s
- viscosity (358.1 K, x1 = 1): 52.1 mPa·s
- electrical conductivity (363 K, x1 = 0.32): 1.27 S/m
- viscosity (363 K, x1 = 0.32): 144.7 mPa·s
- electrical conductivity (363 K, x1 = 0.59): 0.182 S/m
- viscosity (363 K, x1 = 0.59): 119.9 mPa·s
- viscosity (363 K, x1 = 1): 42 mPa·s
- electrical conductivity (368.1 K, x1 = 0.32): 1.61 S/m
- viscosity (368.1 K, x1 = 0.32): 124.1 mPa·s
- electrical conductivity (368.1 K, x1 = 0.59): 0.232 S/m
- viscosity (368.1 K, x1 = 0.59): 101.5 mPa·s
- electrical conductivity (373 K, x1 = 0.59): 0.287 S/m
